Measured values reported in the supplement of paper PMC10307832.

Experiments:
Assay in all cases: relative viability (nuclei count vs DMSO), 5 days (fraction); higher = more cells survive
BAY61-3606 + Alpelisib = compound: COC1=C(C=C(C=C1)C2=CC3=NC=CN3C(=N2)NC4=C(C=CC=N4)C(=O)N)OC [BAY61-3606] + Cc1nc(NC(=O)N2CCC[C@H]2C(N)=O)sc1-c1ccnc(C(C)(C)C(F)(F)F)c1 [Alpelisib] (partner 2 µM)
How it was run: (§1)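 Medians of duplicate plates are given as relative viability. That measure is the nuclei count in treated wells divided by the count in vehicle wells. Counts were taken on 4× images of lung cancer cell lines in 1536-well plates, 5 days after pin-tool dosing the day after seeding with one drug alone or a fixed anchor-drug dose plus five library-drug doses (not always all listed) in √10 steps.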

BAY61-3606 + Dasatinib = compound: COC1=C(C=C(C=C1)C2=CC3=NC=CN3C(=N2)NC4=C(C=CC=N4)C(=O)N)OC [BAY61-3606] + Cc1nc(Nc2ncc(C(=O)Nc3c(C)cccc3Cl)s2)cc(N2CCN(CCO)CC2)n1 [Dasatinib] (partner 0.075 µM)
How it was run: as §1

Doxorubicin + Foretinib = compound: COc1cccc2c1C(=O)c1c(O)c3c(c(O)c1C2=O)C[C@@](O)(C(=O)CO)C[C@@H]3O[C@H]1C[C@H](N)[C@H](O)[C@H](C)O1 [Doxorubicin] + COc1cc2c(Oc3ccc(NC(=O)C4(C(=O)Nc5ccc(F)cc5)CC4)cc3F)ccnc2cc1OCCCN1CCOCC1 [Foretinib] (partner 0.25 µM)
How it was run: as §1

Doxorubicin + Crizotinib = compound: COc1cccc2c1C(=O)c1c(O)c3c(c(O)c1C2=O)C[C@@](O)(C(=O)CO)C[C@@H]3O[C@H]1C[C@H](N)[C@H](O)[C@H](C)O1 [Doxorubicin] + C[C@@H](Oc1cc(-c2cnn(C3CCNCC3)c2)cnc1N)c1c(Cl)ccc(F)c1Cl [Crizotinib] (partner 1 µM)
How it was run: as §1

Row | Cell Line | relative viability (BAY61-3606 + Alpelisib; first compound 0.02 µM) | relative viability (BAY61-3606 + Alpelisib; first compound 0.06325 µM) | relative viability (BAY61-3606 + Alpelisib; first compound 0.2 µM) | relative viability (BAY61-3606 + Alpelisib; first compound 0.6325 µM) | relative viability (BAY61-3606 + Alpelisib; first compound 2 µM) | relative viability (BAY61-3606 + Dasatinib; first compound 0.02 µM) | relative viability (BAY61-3606 + Dasatinib; first compound 0.06325 µM) | relative viability (BAY61-3606 + Dasatinib; first compound 0.2 µM) | relative viability (BAY61-3606 + Dasatinib; first compound 0.6325 µM) | relative viability (BAY61-3606 + Dasatinib; first compound 2 µM) | relative viability (Doxorubicin + Foretinib; first compound 0.001 µM) | relative viability (Doxorubicin + Foretinib; first compound 0.003162 µM) | relative viability (Doxorubicin + Foretinib; first compound 0.01 µM) | relative viability (Doxorubicin + Foretinib; first compound 0.03162 µM) | relative viability (Doxorubicin + Foretinib; first compound 0.1 µM) | relative viability (Doxorubicin + Crizotinib; first compound 0.003162 µM) | relative viability (Doxorubicin + Crizotinib; first compound 0.01 µM) | relative viability (Doxorubicin + Crizotinib; first compound 0.03162 µM) | relative viability (Doxorubicin + Crizotinib; first compound 0.1 µM) | relative viability (Doxorubicin + Crizotinib; first compound 0.001 µM)
1 | LOU-NH91 | 0.764 | 0.643 | 0.73 | 0.798 | 0.541 | 0.538 | 0.495 | 0.513 | 0.538 | 0.489 | 0.742 | 0.879 | 0.944 | 0.931 | 0.839 | 0.763 | 0.772 | 0.674 | 0.711 | 
2 | LU99A | 0.508 | 0.521 | 0.508 | 0.492 | 0.251 | 0.561 | 0.509 | 0.505 | 0.51 | 0.303 | 0.832 | 0.915 | 0.769 | 0.721 | 0.802 | 0.522 | 0.671 | 0.417 | 0.46 | 0.548
3 | LXF-289 | 0.991 | 1.09 | 1.03 | 1.14 | 1.05 | 0.261 | 0.205 | 0.187 | 0.187 | 0.129 | 0.958 | 0.975 | 0.97 | 1.09 | 0.98 | 0.832 | 0.832 | 0.837 | 0.805 | 0.761
4 | NCI-H23 | 0.776 | 0.594 | 0.653 | 0.829 | 0.41 | 0.801 | 0.713 | 0.645 | 0.606 | 0.677 |  | 0.863 | 1.03 | 0.855 | 0.981 | 0.479 | 0.507 | 0.298 | 0.449 | 
5 | NCI-H322M | 0.9 | 0.792 | 0.852 | 0.898 | 0.841 | 0.247 | 0.232 | 0.256 | 0.233 | 0.224 | 0.92 | 0.898 | 0.905 | 0.717 | 0.562 | 1.07 | 0.86 | 0.922 | 0.893 | 1.02
6 | NCI-H358 | 0.996 | 0.753 | 0.732 | 0.643 | 0.228 | 0.17 | 0.158 | 0.149 | 0.179 | 0.138 | 0.743 | 0.737 | 0.341 | 0.151 | 0.122 | 0.543 | 0.441 | 0.202 | 0.0991 | 0.728
7 | NCI-H441 | 0.734 | 0.796 | 0.809 | 0.848 | 0.439 | 0.614 | 0.655 | 0.54 | 0.521 | 0.438 |  | 1.04 | 0.897 | 0.48 | 0.368 | 0.644 | 0.63 | 0.487 | 0.48 | 0.827
8 | NCI-H460 | 0.58 | 0.442 | 0.482 | 0.398 | 0.174 | 0.574 | 0.493 | 0.533 | 0.421 | 0.284 | 0.965 | 1.09 | 0.843 | 0.105 | 0.0481 | 0.882 | 0.273 | 0.0178 | 0.006 | 0.887
9 | NCI-H520 | 1.07 | 0.801 | 1.11 | 1.04 | 1.02 | 0.191 | 0.193 | 0.216 | 0.184 | 0.151 | 0.831 | 0.729 | 0.619 | 0.673 | 0.548 | 0.597 | 0.793 | 0.616 | 0.501 | 0.649
10 | NCI-H596 | 0.428 | 0.482 | 0.108 | 0.479 | 0.407 | 0.644 | 0.481 | 0.618 | 0.594 | 0.489 | 0.981 | 1.04 | 0.976 | 0.619 | 0.964 | 1.13 | 0.916 | 0.91 | 0.933 | 0.984
11 | NCI-H647 | 1.02 | 1.36 | 0.922 | 1.03 | 0.534 | 0.193 | 0.158 | 0.189 | 0.164 | 0.0812 | 1.2 | 1.38 | 1.14 | 0.882 | 0.545 | 1.26 | 0.84 | 0.375 | 0.17 | 1.02
12 | NCI-H650 | 1.27 | 1.12 | 1 | 1.1 | 0.871 | 0.52 | 0.378 | 0.363 | 0.428 | 0.361 | 0.93 | 0.965 | 1.08 | 0.834 | 0.954 | 0.657 | 0.562 | 0.568 | 0.534 | 0.878
13 | NCI-H661 | 0.754 | 0.571 | 0.694 | 0.57 | 0.689 | 0.985 | 0.835 | 0.861 | 0.886 | 0.702 | 1.01 | 1 | 0.954 | 0.826 | 0.542 | 1.21 | 1.08 | 1.02 | 0.993 | 0.971
14 | NCI-H727 | 0.611 | 0.615 | 0.609 | 0.721 | 0.488 | 0.364 | 0.438 | 0.339 | 0.333 | 0.386 | 0.894 | 1.22 | 1.03 | 0.725 | 1.05 | 1.01 | 0.787 | 0.677 | 0.578 | 0.817
